Laboratory results: patent publication US9920010B2, “CXCR7 receptor modulators” (IDORSIA PHARMACEUTICALS LTD, priority 2013, dated 2018)
pEC50: −log10 of the molar value.

Each compound was assayed against T1, CXCR7 (Homo sapiens, UniProt P25106) (assay: PathHunter CHO-K1 CXCR7 b-arrestin recruitment assay (CXCR7 agonistic activity)). Settings: PathHunter CHO-K1 CXCR7 b-arrestin cell line.
T1 construct: host or cells: CHO-K1 (PathHunter CHO-K1 CXCR7 b-arrestin cell line, stably transfected)
Assay type: cell-based
Procedure, shortened: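 Stable CHO-K1 line with C-terminally ProLink-tagged CXCR7 and β-arrestin 2–EA fusion; β-arrestin recruitment restores β-gal activity, read by chemiluminescence after 1 h RT detection. Cells seeded 24 h, starved in OPTIMEM 3–4 h, exposed to compounds 90 min at 37 °C in HBSS/HEPES/BSA. Geometric-mean EC50 from repeated measurements.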

T1 sequence (P25106 whole entry): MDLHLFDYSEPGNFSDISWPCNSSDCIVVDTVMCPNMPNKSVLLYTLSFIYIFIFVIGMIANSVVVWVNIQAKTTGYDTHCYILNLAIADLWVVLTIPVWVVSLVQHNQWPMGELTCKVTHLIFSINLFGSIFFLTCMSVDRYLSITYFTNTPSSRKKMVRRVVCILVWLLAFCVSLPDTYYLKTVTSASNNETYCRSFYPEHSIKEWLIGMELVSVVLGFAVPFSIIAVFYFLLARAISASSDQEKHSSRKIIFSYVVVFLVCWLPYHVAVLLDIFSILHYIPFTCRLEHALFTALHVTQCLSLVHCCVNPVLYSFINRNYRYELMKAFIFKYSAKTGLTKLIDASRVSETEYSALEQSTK
T1 sequence (P32121 whole entry partner): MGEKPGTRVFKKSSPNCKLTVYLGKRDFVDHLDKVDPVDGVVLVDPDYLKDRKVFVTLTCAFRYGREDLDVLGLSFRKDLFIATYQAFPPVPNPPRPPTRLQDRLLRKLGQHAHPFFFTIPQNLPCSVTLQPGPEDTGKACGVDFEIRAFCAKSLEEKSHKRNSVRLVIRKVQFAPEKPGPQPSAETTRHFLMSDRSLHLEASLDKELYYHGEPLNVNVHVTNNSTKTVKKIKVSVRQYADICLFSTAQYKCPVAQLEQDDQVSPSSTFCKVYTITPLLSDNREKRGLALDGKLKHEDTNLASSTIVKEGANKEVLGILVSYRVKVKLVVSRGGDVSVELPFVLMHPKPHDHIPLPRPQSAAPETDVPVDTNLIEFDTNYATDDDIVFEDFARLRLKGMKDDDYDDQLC

Row | Compound | pEC50
1 | CN(CCN(Cc1ccccc1C(F)(F)F)C(=O)CNc1cccc2c1CCN(CC1CC1)C2)C1CCC1 [Example 447, N-[2-(Cyclobutyl-methyl-amino)-ethyl]-2-(2-cyclopropylmethyl-1,2,3,4-tetrahydro-isoquinolin-5-ylamino)-N-(2-trifluoromethyl-benzyl)-acetamide] | 9.00
2 | CN(C)CCN(Cc1ccccc1C(F)(F)F)C(=O)CNc1cccc2c1CN(S(C)(=O)=O)CC2 [Example 544, N-(2-Dimethylamino-ethyl)-2-(2-methanesulfonyl-1,2,3,4-tetrahydro-isoquinolin-8-ylamino)-N-(2-trifluoromethyl-benzyl)-acetamide] | 7.47
3 | CN(C)CCN(Cc1ccccc1C(F)(F)F)C(=O)CNc1cccc2c1CN(C(=O)N(C)C)CC2 [Example 546, 8-({[(2-Dimethylamino-ethyl)-(2-trifluoromethyl-benzyl)-carbamoyl]-methyl}-amino)-3,4-dihydro-1H-isoquinoline-2-carboxylic acid dimethylamide] | 8.10
4 | CNC(=O)N1CCc2cccc(NCC(=O)N(CCN(C)C)Cc3ccccc3C(F)(F)F)c2C1 [Example 547, 8-({[(2-Dimethylamino-ethyl)-(2-trifluoromethyl-benzyl)-carbamoyl]-methyl}-amino)-3,4-dihydro-1H-isoquinoline-2-carboxylic acid methylamide] | 7.82
5 | CN(C)CCN(Cc1ccccc1C(F)(F)F)C(=O)CNc1cccc2c1CN(CC(F)(F)F)CC2 [Example 558, N-(2-Dimethylamino-ethyl)-2-[2-(2,2,2-trifluoro-ethyl)-1,2,3,4-tetrahydro-isoquinolin-8-ylamino]-N-(2-trifluoromethyl-benzyl)-acetamide] | 7.23
6 | CN(C)CCN(Cc1ccccc1C(F)(F)F)C(=O)NCc1cccc2c1CCN(CC1CC1)C2 [Example 568, 3-(2-Cyclopropylmethyl-1,2,3,4-tetrahydro-isoquinolin-5-ylmethyl)-1-(2-dimethylamino-ethyl)-1-(2-trifluoromethyl-benzyl)-urea] | 7.54
7 | CN(C)CCN(Cc1ccccc1C(F)(F)F)C(=O)NCc1cccc2c1CN(CC1CC1)CC2 [Example 569, 3-(2-Cyclopropylmethyl-1,2,3,4-tetrahydro-isoquinolin-8-ylmethyl)-1-(2-dimethylamino-ethyl)-1-(2-trifluoromethyl-benzyl)-urea] | 7.59
8 | CN(C)CCN(Cc1ccccc1C(F)(F)F)C(=O)CNc1cccc2c1CCN(C(=O)C1(C(F)(F)F)CC1)C2 [Example 571, N-(2-Dimethylamino-ethyl)-N-(2-trifluoromethyl-benzyl)-2-[2-(1-trifluoromethyl-cyclopropanecarbonyl)-1,2,3,4-tetrahydro-isoquinolin-5-ylamino]-acetamide] | 7.07
9 | CN(C)CCN(Cc1ccccc1C(F)(F)F)C(=O)CNc1cccc2c1CCN(C(=O)c1ccco1)C2 [Example 572, N-(2-Dimethylamino-ethyl)-2-[2-(furan-2-carbonyl)-1,2,3,4-tetrahydro-isoquinolin-5-ylamino]-N-(2-trifluoromethyl-benzyl)-acetamide] | 8.30
10 | CCCN1CCc2c(cccc2NCC(=O)N(CCN(C)C)Cc2ccccc2C(F)(F)F)C1 [Example 573, N-(2-Dimethylamino-ethyl)-2-(2-propyl-1,2,3,4-tetrahydro-isoquinolin-5-ylamino)-N-(2-trifluoromethyl-benzyl)-acetamide] | 8.52
11 | CN(C)CCN(Cc1ccccc1C(F)(F)F)C(=O)CNc1cccc2c1CCN(CCCF)C2 [Example 574, N-(2-Dimethylamino-ethyl)-2-[2-(3-fluoro-propyl)-1,2,3,4-tetrahydro-isoquinolin-5-ylamino]-N-(2-trifluoromethyl-benzyl)-acetamide] | 8.22
12 | CN(C)CCN(Cc1ncccc1Br)C(=O)CNc1cccc2c1C(C)(C)CN(CC1CC1)C2 [Example 575, N-(3-Bromo-pyridin-2-ylmethyl)-2-(2-cyclopropylmethyl-4,4-dimethyl-1,2,3,4-tetrahydro-isoquinolin-5-ylamino)-N-(2-dimethylamino-ethyl)-acetamide] | 9.05
13 | CC(C)(O)CN(Cc1ncccc1Br)C(=O)CNc1cccc2c1C(C)(C)CN(CC1CC1)C2 [Example 576, N-(3-Bromo-pyridin-2-ylmethyl)-2-(2-cyclopropylmethyl-4,4-dimethyl-1,2,3,4-tetrahydro-isoquinolin-5-ylamino)-N-(2-hydroxy-2-methyl-propyl)-acetamide] | 8.22
14 | CN(C)CCN(Cc1ccccc1Cl)C(=O)CNc1cccc2c1C(C)(C)CN(CC1CC1)C2 [Example 577, N-(2-Chloro-benzyl)-2-(2-cyclopropylmethyl-4,4-dimethyl-1,2,3,4-tetrahydro-isoquinolin-5-ylamino)-N-(2-dimethylamino-ethyl)-acetamide] | 9.05
15 | CN(C)CCN(Cc1ccccc1)C(=O)CNc1cccc2c1CCN(C)C2 [compound 106] | 7.00
16 | CCN1CCc2c(cccc2NCC(=O)N(CCN(C)C)Cc2ccccc2)C1 [compound 107, N-Benzyl-N-(2-dimethylamino-ethyl)-2-(2-ethyl-1,2,3,4-tetrahydro-isoquinolin-5-ylamino)-acetamide] | 7.37
17 | CC(C)N1CCc2c(cccc2NCC(=O)N(CCN(C)C)Cc2ccccc2)C1 [compound 109] | 7.14
18 | CN(C)CCN(Cc1ccccc1)C(=O)CNc1cccc2c1CCN(CC1CC1)C2 [compound 110, N-Benzyl-2-(2-cyclopropylmethyl-1,2,3,4-tetrahydro-isoquinolin-5-ylamino)-N-(2-dimethylamino-ethyl)-acetamide] | 7.85
19 | CCC(=O)N1CCc2c(cccc2NCC(=O)N(CCN(C)C)Cc2ccccc2)C1 [compound 111, N-Benzyl-N-(2-dimethylamino-ethyl)-2-(2-propionyl-1,2,3,4-tetrahydro-isoquinolin-5-ylamino)-acetamide] | 7.49
20 | CC(C)CN1CCc2c(cccc2NCC(=O)N(CCN(C)C)Cc2ccccc2)C1 [compound 112, N-Benzyl-N-(2-dimethylamino-ethyl)-2-(2-isobutyl-1,2,3,4-tetrahydro-isoquinolin-5-ylamino)-acetamide] | 7.40
21 | CCCC(=O)N1CCc2c(cccc2NCC(=O)N(CCN(C)C)Cc2ccccc2)C1 [compound 114, N-Benzyl-2-(2-butyryl-1,2,3,4-tetrahydro-isoquinolin-5-ylamino)-N-(2-dimethylamino-ethyl)-acetamide] | 7.44
22 | CC(C)C(=O)N1CCc2c(cccc2NCC(=O)N(CCN(C)C)Cc2ccccc2)C1 [compound 115] | 7.27

Row | Compound | pEC50
23 | CN(C)CCN(Cc1ccccc1)C(=O)CNc1cccc2c1CCN(CC(C)(C)C)C2 [compound 116] | 7.02
24 | CCOC(=O)N1CCc2c(cccc2NCC(=O)N(CCN(C)C)Cc2ccccc2)C1 [compound 117] | 7.10
25 | CN(C)CCN(Cc1ccccc1)C(=O)CNc1cccc2c1CCN(Cc1ccco1)C2 [compound 118] | 6.90
26 | CC(C)CC(=O)N1CCc2c(cccc2NCC(=O)N(CCN(C)C)Cc2ccccc2)C1 [compound 119] | 7.06
27 | CN(C)CCN(Cc1ccccc1)C(=O)CNc1cccc2c1CCN(CCC(C)(C)C)C2 [compound 120] | 6.81
28 | CC(C)OC(=O)N1CCc2c(cccc2NCC(=O)N(CCN(C)C)Cc2ccccc2)C1 [compound 121] | 7.00
29 | CC(C)COC(=O)N1CCc2c(cccc2NCC(=O)N(CCN(C)C)Cc2ccccc2)C1 [compound 122] | 6.47
30 | CN(C)CCN(Cc1ccccc1)C(=O)CNc1cccc2c1CCN(Cc1ccccc1)C2 [compound 123] | 6.92
31 | CN(C)CCN(Cc1ccccc1)C(=O)CNc1cccc2c1CCN(CC1CCCCC1)C2 [compound 124] | 7.28
32 | CN(C)CCN(Cc1ccccc1)C(=O)CNc1cccc2c1CCN(C(=O)c1ccccc1)C2 [compound 125] | 6.62
33 | CN(C)CCN(Cc1ccccc1)C(=O)CNc1cccc2c1CCN(CCc1ccccc1)C2 [compound 126] | 6.60
34 | CN(C)CCN(Cc1ccccc1)C(=O)CNc1cccc2c1CCN(C(=O)OCC(C)(C)C)C2 [compound 127] | 6.40
35 | CN(C)CCN(Cc1ccccc1)C(=O)CNc1cccc2c1CCN(C(=O)CC1CCCCC1)C2 [compound 129] | 6.35
36 | CN(C)CCN(Cc1ccccc1)C(=O)CNc1cccc2c1CCN(C(=O)Oc1ccccc1)C2 [compound 130] | 6.41
37 | CN(C)CCN(Cc1ccccc1)C(=O)CNc1cccc2c1CCN(C(=O)OCc1ccccc1)C2 [compound 131] | 6.35
38 | CC(C)CCN(Cc1ccccc1)C(=O)CNc1cccc2c1CCN(C)C2 [compound 132] | 6.89
39 | CCN1CCc2c(cccc2NCC(=O)N(CCN(C)C)Cc2ccccc2Cl)C1 [compound 133, N-(2-Chloro-benzyl)-N-(2-dimethylamino-ethyl)-2-(2-ethyl-1,2,3,4-tetrahydro-isoquinolin-5-ylamino)-acetamide] | 7.70
40 | CN(C)CCN(Cc1ccccc1Cl)C(=O)CNc1cccc2c1CCN(CC1CC1)C2 [compound 134, N-(2-Chloro-benzyl)-2-(2-cyclopropylmethyl-1,2,3,4-tetrahydro-isoquinolin-5-ylamino)-N-(2-dimethylamino-ethyl)-acetamide] | 8.70
41 | CCN1CCc2c(cccc2NCC(=O)N(CCN(C)C)Cc2ccccc2C(F)(F)F)C1 [compound 135, N-(2-Dimethylamino-ethyl)-2-(2-ethyl-1,2,3,4-tetrahydro-isoquinolin-5-ylamino)-N-(2-trifluoromethyl-benzyl)-acetamide] | 8.05
42 | CCN1CCc2c(cccc2NCC(=O)N(Cc2ccccc2C(F)(F)F)C2CCN(C)CC2)C1 [compound 137, 2-(2-Ethyl-1,2,3,4-tetrahydro-isoquinolin-5-ylamino)-N-(1-methyl-piperidin-4-yl)-N-(2-trifluoromethyl-benzyl)-acetamide] | 7.35
43 | CCN(Cc1ccccc1Cl)C(=O)/C=C/c1cccc2c1CCN(CC1CC1)C2 [compound 139] | 7.26
44 | Cc1cccc(CN(C(=O)/C=C/c2cccc3c2CCN(CC2CC2)C3)C2CC2)c1C [compound 141] | 7.01
